How the values were obtained:
Experiment in all cases: relative viability (nuclei count vs DMSO), 5 days (fraction); higher = more cells survive
[1] = compound: C(C(=O)C(=O)O)Br [Bromopyruvate] + Nc1ncn([C@H]2C[C@H](O)[C@@H](CO)O2)c(=O)n1 [Decitabine] (partner 2 µM)
Summary of the method: (§1)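 A single step with final 0.05% Triton X-100, 1% formaldehyde and 1 ug/ml Hoechst fixed the cells and stained nuclei 5 days after treatment. Lung cancer cell lines in 1536-well plates had been treated by pin tool the day after seeding with one drug alone or a fixed anchor-drug dose plus five library-drug doses (not always all listed) in √10 steps, and nuclei were counted on 4× images. Relative viability is the ratio of nuclei in treated wells to nuclei in vehicle wells, taken as the median of duplicate plates.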

[2] = compound: C(C(=O)C(=O)O)Br [Bromopyruvate] + CC(=O)Nc1cccc(-n2c(=O)n(C3CC3)c(=O)c3c(Nc4ccc(I)cc4F)n(C)c(=O)c(C)c32)c1 [Trametinib] (partner 0.02 µM)
Summary of the method: as §1

[3] = compound: C(C(=O)C(=O)O)Br [Bromopyruvate] + N=C(N)NC(=N)NCCc1ccccc1 [Phenformin] (partner 250 µM)
Summary of the method: as §1

[4] = compound: CC(O)(CS(=O)(=O)c1ccc(F)cc1)C(=O)Nc1ccc(C#N)c(C(F)(F)F)c1 [Bicalutamide] + CC1(C)CCC(c2ccc(Cl)cc2)=C(CN2CCN(c3ccc(C(=O)NS(=O)(=O)c4ccc(N[C@H](CCN5CCOCC5)CSc5ccccc5)c(S(=O)(=O)C(F)(F)F)c4)cc3)CC2)C1 [Navitoclax] (partner 0.5 µM)
Summary of the method: as §1

| Cell Line | relative viability ([1]; first compound 1 µM) | relative viability ([1]; first compound 3.162 µM) | relative viability ([1]; first compound 10 µM) | relative viability ([1]; first compound 31.62 µM) | relative viability ([1]; first compound 100 µM) | relative viability ([2]; first compound 1 µM) | relative viability ([2]; first compound 3.162 µM) | relative viability ([2]; first compound 10 µM) | relative viability ([2]; first compound 31.62 µM) | relative viability ([2]; first compound 100 µM) | relative viability ([3]; first compound 1 µM) | relative viability ([3]; first compound 3.162 µM) | relative viability ([3]; first compound 10 µM) | relative viability ([3]; first compound 31.62 µM) | relative viability ([3]; first compound 100 µM) | relative viability ([4]; first compound 0.08 µM) | relative viability ([4]; first compound 0.253 µM) | relative viability ([4]; first compound 0.8 µM) | relative viability ([4]; first compound 2.53 µM) |
| --- | --- | --- | --- | --- | --- | --- | --- | --- | --- | --- | --- | --- | --- | --- | --- | --- | --- | --- | --- |
| NCI-H2085 | 0.626 | 0.557 | 0.529 | 0.593 | 0.526 | 0.559 | 0.685 | 0.516 | 0.563 | 0.341 | 0.693 | 0.757 | 0.84 | 0.749 | 0.698 | 1.19 | 1.17 | 1.22 | 0.902 |
| NCI-H2347 | 0.605 | 0.643 | 0.541 | 0.616 | 0.635 | 0.224 | 0.28 | 0.335 | 0.248 | 0.274 | 0.463 | 0.35 | 0.572 | 0.312 | 0.566 | 0.853 | 0.795 | 0.848 | 0.774 |
| NCI-H1944 | 0.419 | 0.423 | 0.503 | 0.39 | 0.44 | 0.428 | 0.376 | 0.409 | 0.435 | 0.398 | 0.218 | 0.225 | 0.217 | 0.206 | 0.214 | 1.04 | 1.08 | 1.08 | 1.03 |
| NCI-H1793 | 0.535 | 0.472 | 0.697 | 0.393 | 0.516 | 0.469 | 0.496 | 0.503 | 0.485 | 0.49 | 0.382 | 0.452 | 0.455 | 0.413 | 0.401 | 0.516 | 0.353 | 0.479 | 0.512 |
| NCI-H596 | 1.64 | 1.11 | 0.974 | 1.05 | 1.03 | 0.743 | 0.84 | 0.789 | 0.74 | 0.845 | 0.694 | 0.724 | 0.501 | 0.695 | 0.822 | 1.03 | 0.847 | 1.24 | 1.15 |
| NCI-H520 | 0.576 | 0.486 | 0.473 | 0.531 | 0.414 | 0.653 | 0.716 | 0.755 | 0.637 | 0.646 | 0.646 | 0.648 | 0.623 | 0.702 | 0.473 | 0.97 | 1.1 | 1.16 | 1.13 |
| EKVX | 0.36 | 0.353 | 0.319 | 0.371 | 0.331 | 0.368 | 0.381 | 0.334 | 0.448 | 0.378 | 0.256 | 0.24 | 0.243 | 0.246 | 0.233 | 1.02 | 1.01 | 1.15 | 0.894 |
| EPLC-272H | 0.371 | 0.376 | 0.426 | 0.437 | 0.389 | 0.266 | 0.278 | 0.341 | 0.302 | 0.289 | 0.31 | 0.314 | 0.309 | 0.367 | 0.347 | 1.33 | 1.03 | 1.23 | 0.956 |
| NCI-H1395 | 0.754 | 0.717 | 0.751 | 0.707 | 0.707 | 0.982 | 0.977 | 1.16 | 1.02 | 1.08 | 0.419 | 0.43 | 0.424 | 0.443 | 0.445 | 1.1 | 1.1 | 1.55 | 1.1 |
| LXF-289 | 0.398 | 0.417 | 0.419 | 0.388 | 0.397 | 0.671 | 0.653 | 0.627 | 0.693 | 0.67 | 0.525 | 0.537 | 0.516 | 0.504 | 0.531 | 0.951 | 0.952 | 0.999 | 0.931 |
| NCI-H2023 | 0.221 | 0.205 | 0.29 | 0.229 | 0.194 | 0.55 | 0.483 | 0.517 | 0.562 | 0.482 | 0.39 | 0.415 | 0.478 | 0.419 | 0.429 | 1.08 | 1.04 | 1.06 | 0.945 |
| NCI-H3122 | 0.454 | 0.426 | 0.365 | 0.425 | 0.377 | 0.223 | 0.237 | 0.24 | 0.204 | 0.129 | 0.401 | 0.398 | 0.394 | 0.374 | 0.376 | 0.991 | 1.01 | 1.02 | 1.03 |
| NCI-H1755 | 0.793 | 0.684 | 0.721 | 0.672 | 0.659 | 0.827 | 0.831 | 0.722 | 0.768 | 0.796 | 0.648 | 0.609 | 0.599 | 0.642 | 0.71 | 0.98 | 0.956 | 1.02 | 0.961 |
| HCC-78 | 0.644 | 0.708 | 0.723 | 0.63 | 0.655 | 0.746 | 0.681 | 0.955 | 0.71 | 0.72 | 0.644 | 0.719 | 0.759 | 0.516 | 0.657 | 0.825 | 0.862 | 0.893 | 0.687 |
| LOU-NH91 | 0.868 | 0.79 | 0.799 | 0.876 | 0.861 | 0.79 | 0.761 | 0.799 | 0.826 | 0.866 | 0.759 | 0.77 | 0.74 | 0.74 | 0.747 | 0.676 | 0.545 | 0.865 | 0.818 |
| NCI-H322M | 0.705 | 0.717 | 0.747 | 0.758 | 0.669 | 0.525 | 0.537 | 0.517 | 0.536 | 0.5 | 0.727 | 0.756 | 0.809 | 0.796 | 0.784 | 1.3 | 1.18 | 1.28 | 1.22 |
| HCC-827 | 0.356 | 0.295 | 0.305 | 0.331 | 0.266 | 0.51 | 0.542 | 0.579 | 0.551 | 0.568 | 0.438 | 0.43 | 0.395 | 0.389 | 0.413 | 1.04 | 0.971 | 1.02 | 1.02 |

Source: the supplement of paper PMC10307832
